Values quoted from earlier work as cited in patent US8785426B1, “Testosterone gel compositions and related methods” (Upsher-Smith Laboratories, Inc., priority 2013, dated 2014).

Details: reported solubility

For `C[C@]12CC[C@H]3[C@@H](CCC4=CC(=O)CC[C@@]43C)[C@@H]1CC[C@@H]2O` [Testosterone, 17-β-hydroxyandrost-4-en-3-one], the “solubility in ethyl alcohol” value is given as 0.17 grams per gram ethyl alcohol.
